Results as given in US20200289554A1, “BIOORTHOGONAL COMPOUNDS COMPRISING A PROPARGYL GROUP FOR TREATING CANCER” (THE UNIVERSITY COURT OF THE UNIVERSITY OF EDINBURGH, priority 2016, published 2020).

How the values were obtained:
[1] = system: A549 cells; assay: Prodrug safety dose-response cell viability (PrestoBlue), A549; assay type: cell-based; settings: Homo sapiens, 120 h, 5 days, no catalyst
Method: (§1) These cell lines were selected as these are primary malignancies against which the parental drugs are currently prescribed.
(§2) The toxicities of each active agent and prodrugs were compared by performing dose-response studies. […] Cell viability was analysed by fluoresce intensity (λex=540 nm; λem=590 nm) after 60-90 min incubation with PrestoBlue™ Reagent (Life Technologies).

[2] = system: U87G cells; assay: Prodrug safety dose-response cell viability (PrestoBlue), U87G; assay type: cell-based, human; settings: Homo sapiens, 120 h; U87G cells, 5 days, no catalyst; read-out: EC50 (cell viability)
Method: as §1, §2

[3] = system: T98 cells; assay: Prodrug safety dose-response cell viability (PrestoBlue), T98; assay type: cell-based; settings: Homo sapiens, 120 h, 5 days, no catalyst
Method: as §1, §2

[4] = system: A549 cells; assay: BOOM conversion: prodrug + metal resins in cell culture, cell viability, A549; assay type: cell-based, human
Method: Cell viabilities for each prodrug provided as a combination with palladium is presented in FIG. 3 and gold is presented in FIG. 33 in the right of each set of two bars. […] Cells were incubated in tissue culture media containing 0.1% (v/v) DMSO and: Pd^0, Au, or Pd/Au-resins (1 mg/mL, negative control); 100 μM of each prodrug (negative control); and Pd^0, Au, or Pd/Au-resins (1 mg/mL)+100 μM of each prodrug (BOOM reaction assay). Cells incubated in 0.1% (v/v) DMSO in media were used as untreated cell control.
(§3) Following 5 days treatment, cells were incubated with PrestoBlue™ Cell Viability Reagent (Life Technologies) for 60-90 min. Fluorescence intensity values were related to the untreated cells (100% cell viability). […] Cells incubated in 0.1% (v/v) DMSO in media were used as untreated cell control.
(§4) Cell viabilities for each prodrug provided as a combination with palladium is presented in FIG. 7 in the right of each set of two bars. Data for prodrug in the absence of palladium catalyst is also provided (the left bar of each set of two bars) for comparison along with negative controls (from left to right: DMSO, Pd^0 and Doxorubicin). Cells were incubated in tissue culture media containing 0.1% (v/v) DMSO and: Pd^0-resins (1 mg/mL, negative control); 1 μM of each prodrug (negative control); and Pd^0-resins (1 mg/mL)+1 μM of each prodrug (BOOM reaction assay). Cells incubated in 0.1% (v/v) DMSO in media were used as untreated cell control.
Following 5 days treatment, cells were incubated with PrestoBlue™ Cell Viability Reagent (Life Technologies) for 90 min. Fluorescence intensity values were related to the untreated cells (100% cell viability). Data are provided in FIG. 8 for cells incubated in tissue culture media containing 0.1% (v/v) DMSO and: Pd^0-resins (1 mg/mL, negative control); 0.3-3 μM of Doxorubicin prodrug for A549 and DU145 cell lines, 0.1-1 μM of Doxorubicin prodrug for T98 cell line (negative control); 0.3-3 μM of Doxorubicin for A549 and DU145 cell lines, 0.1-1 μM of Doxorubicin for T98 cell line (positive control); and Pd^0-resin (1 mg/mL)+Doxorubicin prodrug (BOOM reaction assay). Cells incubated in 0.1% (v/v) DMSO in media were used as untreated cell control.
as §4, with “21” for “7”, “panobinostat).” for “Doxorubicin).”
(§5) The toxigenic effect as a result of in situ generation of parental drug in cell culture was determined by incubating all cells in tissue culture media containing 0.1% (v/v) DMSO and a) Pd^0, Au, or Pd/Au-resin (1 mg/mL for all cells tested, negative control); b) prodrug (negative control); or c) Pd^0, Au, or Pd/Au-resin (1 mg/mL for all cells)+prodrug (reaction assay). Cells incubated in 0.1% (v/v) DMSO in media was used as an untreated cell reference standard (100% viability). A PrestoBlue® cell viability assay as described above was carried out and fluorescent intensities compared to the untreated cell control.
A dose response study was performed for each cell line keeping the quantity of Pd^0 resin constant (0.8 mg/mL for U87G and 1 mg/mL for the rest of cell lines). All cells were plated in Dulbecco's Modified Eagle Media (DMEM) supplemented with serum (10% FBS) and L-glutamine (2 mM). […]

[5] = system: U87G cells; assay: BOOM conversion: prodrug + Pd0-resins in cell culture, cell viability, U87G; assay type: cell-based, human; settings: Homo sapiens, 120 h, prodrug in combination with Pd0-resins 0.8 mg/mL, 5 days, read-out: EC50, prodrug + Pd-resins
Method: as §3, §5
A dose response study was performed for each cell line keeping the quantity of Pd^0 resin constant (0.8 mg/mL for U87G and 1 mg/mL for the rest of cell lines). […] Fluorescence intensity values (detected using a PerkinElmer EnVision 2101 multilabel reader with excitation filter at 540 nm and emissions filter at 590 nm) were determined relative to the untreated cell control.

EC50 ([4]; Homo sapiens, 120 h, prodrug in combination with Pd0-resins 1 mg/mL, 5 days, read-out: EC50, prodrug + Pd-resins): 10.5 µM
EC50 [5]: 24.7 µM
Structure (SMILES): C#CCOc1ccc(CONC(=O)CCCCCCC(=O)Nc2ccccc2)cc1 [POB-Vor, Propargyloxybenzyl-Vorinostat]
EC50 [1]: > 500 µM
EC50 [2]: > 500 µM
EC50 [3]: > 500 µM
toxigenic effect of prodrug + Au resins ([4]; Au resins 1 mg/mL, prodrug 100 μM): strong toxigenic effect
toxigenic effect of prodrug + Pd0 resins ([4]; Pd0-resin 1 mg/mL, 100 μM Vorinostat prodrugs, 1 μM Doxorubicin prodrugs, 0.3 μM Panobinostat prodrug): strong toxigenic effect
toxigenic effect of prodrug + Pd/Au resins ([4]; Pd/Au resins 1 mg/mL, prodrug 100 μM): strong toxigenic effect
